# Results: US6737383B1, “Herbicidal oxadiazolidines” (priority 1999, dated 2004)
# Assays:
# [1] = test system: hairy beggarticks; assay: Test C postemergence hairy beggarticks; type: in vivo, Bidens pilosa; details: 0 to 100 scale, 0 no effect, 100 complete control
# Protocol: (§1) Compounds evaluated in this test were formulated in a non-phytotoxic solvent mixture which included a surfactant and applied to plants that were grown for various periods of time before treatment (postemergence application). A mixture of sandy loam soil and greenhouse potting mix in a 60:40 ratio was used for the postemergence test.
# (§2) Plantings of these crops and weed species were adjusted to produce plants of appropriate size for the postemergence test. All plant species were grown using normal greenhouse practices. Crop and weed species include arrowleaf sida (Sida rhombifolia), barnyardgrass (Echinochloa crus-galli), cocklebur (Xanthium strumarium), common ragweed (Ambrosia elatior), corn (Zea mays), cotton (Gossypium hirsutum), eastern black nightshade (Solanum ptycanthum), fall panicum (Panicum dichotomiflorum), field bindweed (Convolvulus arvensis), giant foxtail (Setaria faberii), hairy beggarticks (Bidens pilosa), ivyleaf morningglory (Ipomoea hederacea), johnsongrass (Sorghum halepense), ladysthumb smartweed (Polygonum persicaria), lambsquarters (Chenopodium album), large crabgrass (Digitaria sanguinalis), purple nutsedge (Cyperus rotundus), redroot pigweed (Amaranthus retroflexus), soybean (Glycine max), surinam grass (Brachiaria decumbens), velvetleaf (Abutilon theophrasti) and wild poinsettia (Euphorbia heterophylla).
# (§3) Treated plants and untreated controls were maintained in a greenhouse for approximately 14, to 21 days, after which all treated plants were compared to untreated controls and visually evaluated. Plant response ratings, summarized in Table C, were based upon a 0 to 100 scale where 0 was no effect and 100 was complete control. A dash response (−) means no test result.
# [2] = test system: corn; assay: Test C postemergence corn; type: in vivo, Zea mays; details: 0 to 100 scale, 0 no effect, 100 complete control
# Method in brief: (§4)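 Soil: sandy loam/potting mix 60:40. Treatment: postemergence, solvent + surfactant formulation. Readout: visual control score 0–100 vs untreated at ~14–21 days.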
# [3] = test system: blackgrass; assay: Test E blackgrass; type: in vivo, Alopecurus myosuroides; details: Postemergence; for Plant response rating, Blackgrass: 0 to 100 scale; for Blackgrass plant response rating: Rate 250 g/ha, 0 to 100 scale where 0 is no effect and 100 is complete control
# Method in brief: (§5)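 For postemergence, plants at the 1- to 4-leaf stage, in a 60:40 mix of sandy loam and potting mix, treated with compound formulated in a surfactant-containing non-phytotoxic solvent. Visual assessment versus untreated controls followed roughly 21–28 days in the greenhouse.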
# [4] = test system: cocklebur; assay: Test C postemergence cocklebur; type: in vivo, Xanthium strumarium; details: 0 to 100 scale, 0 no effect, 100 complete control
# Method in brief: as §4
# [5] = test system: lambsquarters; assay: Test C postemergence lambsquarters; type: in vivo, Chenopodium album; details: 0 to 100 scale, 0 no effect, 100 complete control
# Protocol: as §1, §2, §3
# [6] = test system: littleseed canarygrass; assay: Test E littleseed canarygrass; type: in vivo, Phalaris minor; details: Preemergence; for LS canarygrass plant response rating (0 to 100 scale): Rate 250 g/ha
# [7] = test system: spring barley; assay: Test E spring barley; type: in vivo, Hordeum vulgare; details: Preemergence; for Spring Barley plant response rating (0 to 100 scale): Rate 250 g/ha
# [8] = test system: spring barley; assay: Test E spring barley; type: in vivo, Hordeum vulgare; details: Postemergence; for Plant response rating, Spring Barley: 0 to 100 scale; for Spring Barley plant response rating: Rate 250 g/ha, 0 to 100 scale where 0 is no effect and 100 is complete control
# Method in brief: as §5
# [9] = test system: wild buckwheat; assay: Test E wild buckwheat; type: in vivo, Polygonum convolvulus; details: Postemergence; for Plant response rating, Wild buckwheat: 0 to 100 scale; for Wild buckwheat plant response rating: Rate 250 g/ha, 0 to 100 scale where 0 is no effect and 100 is complete control
# Protocol: Compounds evaluated in this test were formulated in a non-phytotoxic solvent mixture which included a surfactant and applied to plants that were in the 1- to 4-leaf stage (postemergence application). A mixture of sandy loam soil and greenhouse potting mix in a 60:40 ratio was used for the postemergence test.
# Plantings of these crops and weed species were adjusted to produce plants of appropriate size for the postemergence test. All plant species were grown using normal greenhouse practices. Crop and weed species include annual bluegrass (Poa annua), blackgrass (Alopecurus myosuroides), black nightshade (Solanum nigra), chickweed (Stellaria media), common poppy (Papaver rhoeas), deadnettle (Lamium amplexicaule), downy brome (Bromus tectorum), field violet (Viola arvensis), galium (Galium aparine), green foxtail (Setaria viridis), Italian ryegrass (Lolium multiflorum), jointed goatgrass (Aegilops cylindrica), kochia (Kochia scoparia), lambsquarters (Chenopodium album), littleseed canarygrass (Phalaris minor), rape (Brassica napus), redroot pigweed (Amaranthus retroflexus), Russian thistle (Salsola kali), scentless chamomile (Matricaria inodora), spring barley (Hordeum vulgare), sugar beet (Beta vulgaris), sunflower (Helianthus annuus), ivyleaf speedwell (Veronica hederaefolia), spring wheat (Triticum aestivum), winter wheat (Triticum aestivum), wild buckwheat (Polygonum convolvulus), wild mustard (Sinapis arvensis), wild oat (Avena fatua), windgrass (Apera spica-venti) and winter barley (Hordeum vulgare).
# Treated plants and untreated controls were maintained in a greenhouse for approximately 21 to 28 days, after which all treated plants were compared to untreated controls and visually evaluated. […] A dash response (-) means no test result.
# [10] = test system: common poppy; assay: Test E common poppy; type: in vivo, Papaver rhoeas; details: Postemergence; for Common poppy plant response rating: Rate 250 g/ha, 0 to 100 scale where 0 is no effect and 100 is complete control
# Method in brief: as §5
# [11] = test system: wild buckwheat; assay: Test E wild buckwheat; type: in vivo, Polygonum convolvulus; details: Preemergence; for Wild buckwheat plant response rating (0 to 100 scale): Rate 250 g/ha
# [12] = test system: large crabgrass; assay: Test C postemergence large crabgrass; type: in vivo, Digitaria sanguinalis; details: 0 to 100 scale, 0 no effect, 100 complete control
# Protocol: as §1, §2, §3
# [13] = test system: pitted morningglory; assay: Test D pitted morningglory; type: in vivo, Ipomoea lacunosa; details: Postemergence, 0 to 100 scale
# [14] = test system: dallisgrass; assay: Test D dallisgrass; type: in vivo, Paspalum dilatatum; details: Postemergence, 0 to 100 scale
# [15] = test system: purple nutsedge; assay: Test D purple nutsedge; type: in vivo, Cyperus rotundus; details: Postemergence, 0 to 100 scale
# [16] = test system: Green foxtail; assay: Test D green foxtail; type: in vivo; details: Postemergence, 0 to 100 scale, 0 no injury, 100 complete control
# [17] = Rate 125 g/ha, 0 to 100 scale (0 no effect, 100 complete control)
# [18] = Rate 16 g/ha, 0 no injury, 100 complete control
# [19] = Rate 32 g/ha, 0 no injury, 100 complete control
# [20] = Rate 64 g/ha, 0 no injury, 100 complete control
# [21] = Rate 125 g/ha, 0 no injury, 100 complete control
# [22] = Rate 125 g/ha, 0 is no effect, 100 is complete control
# [23] = Rate 500 g/ha, 0 is no effect, 100 is complete control
# [24] = Rate 500 g/ha, 0 to 100 scale where 0 is no effect and 100 is complete control
structure (smiles),measurement,setting,value
CC(C)N(C(=O)n1oc(=O)n(C)c1=O)c1ccc(F)cc1 [Compound 138],Plant response rating H. beggarticks,[1]; Rate 280 g/ha,10
same,Plant response rating H. beggarticks,[1]; Rate 1120 g/ha,80
same,"Plant response rating, Corn",[2]; Rate 280 g/ha,20
same,"Plant response rating, Corn",[2]; Rate 560 g/ha,50
same,"Plant response rating, Corn",[2]; Rate 1120 g/ha,60
same,"Plant response rating, Blackgrass",[3]; Rate 125 g/ha,20
same,Blackgrass plant response rating,[3],0
same,"Plant response rating, Cocklebur",[4]; Rate 140 g/ha,0
same,"Plant response rating, Cocklebur",[4]; Rate 280 g/ha,0
same,"Plant response rating, Cocklebur",[4]; Rate 560 g/ha,0
same,"Plant response rating, Cocklebur",[4]; Rate 1120 g/ha,0
same,Plant response rating Lambsquarters,[5]; Rate 140 g/ha,0
same,Plant response rating Lambsquarters,[5]; Rate 280 g/ha,0
same,Plant response rating Lambsquarters,[5]; Rate 560 g/ha,10
same,Plant response rating Lambsquarters,[5]; Rate 1120 g/ha,20
same,"Plant response rating, LS canarygrass",[6]; [17],70
same,LS canarygrass plant response rating (0 to 100 scale),[6],85
same,"Plant response rating, Spring Barley",[7]; [17],60
same,Spring Barley plant response rating (0 to 100 scale),[7],90
same,"Plant response rating, Spring Barley",[8]; Rate 125 g/ha,0
same,Spring Barley plant response rating,[8],5
same,"Plant response rating, Wild buckwheat",[9]; Rate 125 g/ha,0
same,Wild buckwheat plant response rating,[9],0
same,"Plant response rating, Comnion poppy","[10]; Rate 125 g/ha, 0 to 100 scale",20
same,Common poppy plant response rating,[10],40
same,"Plant response rating, Wild buckwheat",[11]; [17],50
same,Wild buckwheat plant response rating (0 to 100 scale),[11],100
same,"Plant response rating, Large crabgrass",[12]; Rate 140 g/ha,0
same,"Plant response rating, Large crabgrass",[12]; Rate 280 g/ha,10
same,"Plant response rating, Large crabgrass",[12]; Rate 560 g/ha,85
same,"Plant response rating, Large crabgrass",[12]; Rate 1120 g/ha,85
CC(C)N(C(=O)n1oc(=O)n(C2CC2)c1=O)c1ccc(F)cc1 [Compound 242],Plant response rating H. beggarticks,[1]; Rate 1120 g/ha,90
same,"Plant response rating, P. morninglory",[13]; [18],0
same,"Plant response rating, P. morninglory",[13]; [19],0
same,"Plant response rating, P. morninglory",[13]; [20],0
same,"Plant response rating, P. morninglory",[13]; [21],0
same,"Plant response rating, P. morninglory",[13]; Rate 250 g/ha,0
same,"Plant response rating, Corn",[2]; Rate 140 g/ha,0
same,"Plant response rating, Corn",[2]; Rate 280 g/ha,0
same,"Plant response rating, Corn",[2]; Rate 560 g/ha,0
same,"Plant response rating, Corn",[2]; Rate 1120 g/ha,20
same,"Plant response rating, Dallisgrass",[14]; [18],60
same,"Plant response rating, Dallisgrass",[14]; [19],90
same,"Plant response rating, Dallisgrass",[14]; [20],90
same,"Plant response rating, Dallisgrass",[14]; [21],100
same,"Plant response rating, Dallisgrass",[14]; Rate 250 g/ha,100
same,"Plant response rating, Blackgrass",[3]; Rate 62 g/ha,60
same,"Plant response rating, Blackgrass",[3]; [22],0
same,Blackgrass plant response rating,[3],10
same,"Plant response rating, Blackgrass",[3]; [23],50
same,"Plant response rating, Cocklebur",[4]; Rate 140 g/ha,0
same,"Plant response rating, Cocklebur",[4]; Rate 280 g/ha,0
same,"Plant response rating, Cocklebur",[4]; Rate 560 g/ha,0
same,"Plant response rating, Cocklebur",[4]; Rate 1120 g/ha,20
same,"Plant response rating, Purple nutsedge",[15]; [18],0
same,"Plant response rating, Purple nutsedge",[15]; [19],0
same,Purple nutsedge plant response rating,[15]; [20],0
same,Purple nutsedge plant response rating,[15]; [21],0
same,"Plant response rating, Purple nutsedge",[15]; Rate 250 g/ha,100
same,Plant response rating Lambsquarters,[5]; Rate 140 g/ha,0
same,Plant response rating Lambsquarters,[5]; Rate 280 g/ha,0
same,Plant response rating Lambsquarters,[5]; Rate 560 g/ha,0
same,Plant response rating Lambsquarters,[5]; Rate 1120 g/ha,0
same,"Plant response rating, LS canarygrass",[6]; [17],100
same,LS canarygrass plant response rating (0 to 100 scale),[6],100
same,"Plant response rating, LS canarygrass",[6]; [24],100
same,"Plant response rating, Spring Barley",[7]; [17],60
same,Spring Barley plant response rating (0 to 100 scale),[7],70
same,"Plant response rating, Spring Barley",[7]; [24],85
same,"Plant response rating, Spring Barley",[8]; Rate 62 g/ha,5
same,"Plant response rating, Spring Barley",[8]; [22],20
same,Spring Barley plant response rating,[8],20
same,"Plant response rating, Spring Barley",[8]; [23],20
same,"Plant response rating, Wild buckwheat",[9]; Rate 62 g/ha,50
same,"Plant response rating, Wild buckwheat",[9]; [22],10
same,Wild buckwheat plant response rating,[9],10
same,"Plant response rating, Wild buckwheat",[9]; [23],0
same,"Plant response rating, Common poppy","[10]; Rate 62 g/ha, 0 to 100 scale",55
same,"Plant response rating, Common poppy","[10]; Rate 125 g/ha, 0 to 100 scale, 0 is no effect, 100 is complete control",40
same,Common poppy plant response rating,[10],20
same,"Plant response rating, Common poppy","[10]; Rate 500 g/ha, 0 to 100 scale, 0 is no effect, 100 is complete control",0
same,"Plant response rating, Green foxtail",[16]; Rate 64 g/ha,100
same,"Plant response rating, Green foxtail",[16]; Rate 125 g/ha,100
same,"Plant response rating, Wild buckwheat",[11]; [17],60
same,Wild buckwheat plant response rating (0 to 100 scale),[11],70
same,"Plant response rating, Wild buckwheat",[11]; [24],100
same,"Plant response rating, Large crabgrass",[12]; Rate 140 g/ha,10
same,"Plant response rating, Large crabgrass",[12]; Rate 280 g/ha,30
same,"Plant response rating, Large crabgrass",[12]; Rate 560 g/ha,85
same,"Plant response rating, Large crabgrass",[12]; Rate 1120 g/ha,85
CC(C)N(C(=O)n1oc(=O)n(C2CCCCCC2)c1=O)c1ccc(F)cc1F [Compound 342],"Plant response rating, P. morninglory",[13]; [18],0
same,"Plant response rating, P. morninglory",[13]; [19],0
same,"Plant response rating, P. morninglory",[13]; [20],0
same,"Plant response rating, P. morninglory",[13]; [21],0
same,"Plant response rating, P. morninglory",[13]; Rate 250 g/ha,0
same,"Plant response rating, Dallisgrass",[14]; [18],0
same,"Plant response rating, Dallisgrass",[14]; [19],0
same,"Plant response rating, Dallisgrass",[14]; [20],0
same,"Plant response rating, Dallisgrass",[14]; [21],90
same,"Plant response rating, Dallisgrass",[14]; Rate 250 g/ha,100
same,"Plant response rating, Purple nutsedge",[15]; [18],0
same,"Plant response rating, Purple nutsedge",[15]; [19],0
same,Purple nutsedge plant response rating,[15]; [20],0
same,Purple nutsedge plant response rating,[15]; [21],0
same,"Plant response rating, Purple nutsedge",[15]; Rate 250 g/ha,0
same,"Plant response rating, Green foxtail",[16]; Rate 64 g/ha,0
same,"Plant response rating, Green foxtail",[16]; Rate 125 g/ha,60
